# Target: T1, acyl-CoA:cholesterol O-acyltransferase (ACAT) (Oryctolagus cuniculus, UniProt G1SFD9)
# T1 construct: The intestinal mucosa of a white rabbit was homogenized and microsomal fraction was obtained by stepwise centrifugation; from tissue; host or cells: intestinal mucosa of white rabbit, microsomal fraction
# T1 sequence (G1SFD9 1-524): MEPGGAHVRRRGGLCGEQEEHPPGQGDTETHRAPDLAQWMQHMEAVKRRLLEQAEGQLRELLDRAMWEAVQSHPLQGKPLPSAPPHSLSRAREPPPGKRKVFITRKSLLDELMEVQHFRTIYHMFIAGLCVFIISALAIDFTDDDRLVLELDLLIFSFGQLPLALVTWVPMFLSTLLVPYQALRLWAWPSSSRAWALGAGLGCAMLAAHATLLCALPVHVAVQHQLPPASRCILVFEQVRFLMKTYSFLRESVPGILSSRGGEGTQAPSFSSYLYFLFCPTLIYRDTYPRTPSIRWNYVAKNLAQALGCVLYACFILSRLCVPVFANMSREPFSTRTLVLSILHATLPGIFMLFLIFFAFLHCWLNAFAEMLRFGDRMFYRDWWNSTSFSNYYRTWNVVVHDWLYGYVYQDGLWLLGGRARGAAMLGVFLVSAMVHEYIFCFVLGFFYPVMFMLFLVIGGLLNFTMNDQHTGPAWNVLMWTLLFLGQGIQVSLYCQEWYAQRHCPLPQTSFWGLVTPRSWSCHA
# Assay: Inhibitory activity on acyl-CoA:cholesterol O-acyltransferase (ACAT), intestinal mucosa microsomal fraction, [1-14C]oleyl-CoA incorporation into cholesterol esters
# Format: biochemical, white rabbit
# Settings: 0.01 μM; read-out: Inhibition rate %
# Description: Inhibitory activity on acyl-CoA:cholesterol Oacyltransferase (ACAT)
# The enzyme used in the test was prepared according to the method of Heider et al. [J. Lipid, Res. 24, 1127 (1983)]. The intestinal mucosa of a white rabbit was homogenized and microsomal fraction was obtained by stepwise centrifugation. The microsomal fraction was suspended in 0,154M phosphate buffer (pH 0 7.4) and stored at -80° C. until use.
# ACAT activity was determined by a modification of the method of Helgerud et al. [J. Lipid Res. 22, 271 (1981)] by measuring radioactivity incorporated into cholesterol esters from [1-14C]oleyl-CoA, as an indication. As to the ACAT-inhibiting activity of each compound to be tested, the inhibition rate was calculated by the following equation.
row,SMILES,inhibition at 0.01 µM [%]
1,"CCc1cccc(CC)c1NC(=O)Nc1oc2cc(C)c(C)cc2c1-c1ccccc1Cl [Compound 37, N-[3-(2-Chlorophenyl)-5,6-dimethylbenzofuran-2-yl]-N'-(2,6-diethylphenyl)urea]",74.7
2,"Cc1cc2sc(NC(=O)Nc3c(C(C)C)cccc3C(C)C)c(-c3ccccc3Cl)c2cc1C [Compound 81, N-(3-(2-Chlorophenyl)-5,6-dimethyl-1-benzothiophen-2-yl]-N'-(2,6-diisopropylphenyl)urea]",41.4
3,"Cc1cc2sc(NC(=O)Nc3c(C)cccc3C(C)C)c(-c3ccccc3Cl)c2cc1C [Compound 82, N-[3-(2-Chlorophenyl)-5,6-dimethyl-1-benzothiophen-2-yl]-N'-(2-isopropyl-6-methylphenyl)urea]",67
4,"Cc1cc2sc(NC(=O)Nc3c(C)cccc3N(C)C)c(-c3ccccc3Cl)c2cc1C [Compound 83, N-[3-(2-Chlorophenyl)-5,6-dimethyl-1-benzothiophen-2-yl]-N'-(2-dimethylamino-6-methylphenyl)urea]",81.3
5,"Cc1cc2sc(NC(=O)Nc3ccc(F)cc3F)c(-c3ccccc3Cl)c2cc1C [Compound 84, N-[3-(2-Chlorophenyl)-5,6-dimethyl-1-benzothiophen-2-yl]-N'-(2,4-difluorophenyl)urea]",78.6
6,"Cc1cccc(C)c1NC(=O)Nc1sc2cc3c(cc2c1-c1ccccc1Cl)CCC3 [Compound 87, N-[3-(2-Chlorophenyl)-6,7-dihydro-5H-cyclopenta[f][1]benzothiophen-2-yl]-N'-(2,6-dimethylphenyl)urea]",60.4
7,"CCc1cccc(CC)c1NC(=O)Nc1sc2cc3c(cc2c1-c1ccccc1Cl)CCC3 [Compound 88, N-[3-(2-Chlorophenyl)-6,7-dihydro-5H-cyclopenta[f][1]benzothiophen-2-yl]-N'-(2,6-diethylphenyl)urea]",85.8
8,"CC(C)c1cccc(C(C)C)c1NC(=O)Nc1sc2cc3c(cc2c1-c1ccccc1Cl)CCC3 [Compound 89, N-[3-(2-Chlorophenyl)-6,7-dihydro-5H-cyclopenta[f][1]benzothiophen-2-yl]-N'-(2,6-diisopropylphenyl)urea]",44.4
9,"Cc1cccc(C(C)C)c1NC(=O)Nc1sc2cc3c(cc2c1-c1ccccc1Cl)CCC3 [Compound 90, N-[3-(2-Chlorophenyl)-6,7-dihydro-5H-cyclopenta[f][1]benzothiophen-2-yl]-N'-(2-isopropyl-6-methylphenyl)urea]",75.4
10,Cc1cccc(N(C)C)c1NC(=O)Nc1sc2cc3c(cc2c1-c1ccccc1Cl)CCC3 [Compound 91],65
11,"O=C(Nc1ccc(F)cc1F)Nc1sc2cc3c(cc2c1-c1ccccc1Cl)CCC3 [Compound 92, N-(3-(2-Chlorophenyl)-6,7-dihydro-5H-cyclopenta[f][1]benzothiophen-2-yl]-N'-(2,4-difluorophenyl)urea]",81.7
12,"O=C(Nc1sc2cc3c(cc2c1-c1ccccc1Cl)CCC3)Nc1c(F)cccc1F [Compound 93, N-[3-(2-Chlorophenyl)-6,7-dihydro-5H-cyclopenta[f][1]benzothiophen-2-yl]-N'-(2,6-difluorophenyl)urea]",69.7
13,"O=C(Nc1sc2cc3c(cc2c1-c1ccccc1Cl)CCC3)Nc1c(F)cc(F)cc1F [Compound 94, N-[3-(2-Chlorophenyl)-6,7-dihydro-5H-cyclopenta[f][1]benzothiophen-2-yl]-N'-(2,4,6-trifluorophenyl)urea]",76.7

# Results, then the molecule that gave them:
row,inhibition at 0.01 µM [%],SMILES
1,66.4,"O=C(Nc1sc2cc3c(cc2c1-c1ccccc1Cl)CCC3)Nc1c(Cl)cccc1Cl [Compound 95, N-[3-(2-Chlorophenyl)-6,7-dihydro-5H-cyclopenta[f][1]benzothiophen-2-yl]-N'-(2,6-dichlorophenyl)urea]"
2,80.7,"CCc1cccc(CC)c1NC(=O)Nc1sc2cc3c(cc2c1-c1ccccc1Cl)CCCC3 [Compound 96, N-[3-(2-Chlorophenyl)-5,6,7,8-tetrahydronaphthono[2,3-b]thiophen-2-yl]-N'-(2,6-diethylphenyl)urea]"
3,66,"Cc1cccc(C(C)C)c1NC(=O)Nc1sc2cc3c(cc2c1-c1ccccc1Cl)CCCC3 [Compound 98, N-[3-(2-Chlorophenyl)-5,6,7,8-tetrahydronaphtho[2,3-b]thiophen-2-yl]-N'-(2-isopropyl-6-methylphenyl)urea]"
4,90.1,"O=C(Nc1ccc(F)cc1F)Nc1sc2cc3c(cc2c1-c1ccccc1Cl)CCCC3 [Compound 99, N-[3-(2-Chlorophenyl)-5,6,7,8-tetrahydronaphtho[2,3-b]thiophen-2-yl]-N'-(2,4-difluorophenyl)urea]"
5,18.4,"CC(C)c1cccc(C(C)C)c1NC(=O)Nc1sc2ccc([N+](=O)[O-])cc2c1-c1ccc(Cl)cc1Cl [Compound 100, N-[3-(2,4-Dichlorophenyl)-5-nitro-1-benzothiophen-2-yl]-N'-(2,6-diisopropylphenyl)urea]"
6,43.3,"CCc1cccc(CC)c1NC(=O)Nc1sc2cc(OC)c(OC)cc2c1-c1ccccc1Cl [Compound 102, N-[3-(2-Chlorophenyl)-5,6-dimethoxy-1-benzothiophen-2-yl]-N'-(2,6-diethylphenyl)urea]"
7,36.2,"O=C(Nc1ccc(F)cc1F)Nc1sc2cc3c(cc2c1-c1ccc(Cl)cc1Cl)CCC3 [Compound 107, N-[3-(2,4-Dichlorophenyl)-6,7-dihydro-5H-cyclopenta[f][1]benzothiophen-2-yl]-N'-(2,4-difluorophenyl)urea]"
8,80.1,"CCc1cccc(CC)c1NC(=O)Nc1sc2cc3c(cc2c1-c1ccccc1C)CCC3 [Compound 109, N-(2,6-Diethylphenyl)-N'-[3-(2-methylphenyl)-6,7-dihydro-5H-cyclopenta[f][1]benzothiophen-2-yl]urea]"
9,69.2,"Cc1ccccc1-c1c(NC(=O)Nc2c(C)cccc2C(C)C)sc2cc3c(cc12)CCC3 [Compound 111, N-(2-Isopropyl-6-methylphenyl)-N'-[3-(2methylphenyl)-6,7-dihydro-5H-cyclopenta[f][1]benzothiophen-2-yl]urea]"
10,43.5,"CCc1cccc(CC)c1NC(=O)Nc1sc2cc3c(cc2c1-c1ccccc1C(F)(F)F)CCC3 [Compound 113, N-(2,6-Diethylphenyl)-N'-[3-(2-trifluoromethylphenyl)-6,7-dihydro-5H-cyclopenta[f][1]-benzothiophen-2-yl]urea]"
11,79.5,"Cc1ccccc1-c1c(NC(=O)Nc2ccc(F)cc2F)sc2cc3c(cc12)CCCC3 [Compound 119, N-(2,4-Difluorophenyl)-N'-[3-(2-methylphenyl)5,6,7,8-tetrahydronaphtho [2,3-b]thiophen-2-yl]urea]"

# Same assay, conditions: 1 μM; read-out: Inhibition rate %
row,inhibition at 1 µM [%],SMILES
1,99.5,"CCc1cccc(CC)c1NC(=O)Nc1oc2cc(C)c(C)cc2c1-c1ccccc1Cl [Compound 37, N-[3-(2-Chlorophenyl)-5,6-dimethylbenzofuran-2-yl]-N'-(2,6-diethylphenyl)urea]"
2,60.4,"Cc1ccc(S(=O)(=O)n2c(NC(=O)Nc3ccc(F)cc3F)c(-c3ccccc3)c3ccccc32)cc1 [Compound 120, N-(2,4-Difluorophenyl)-N'-[3-phenyl-1-(p-toluenesulfonyl)-3-phenylindole-2-yl]urea]"
3,85.8,"Cc1ccc(S(=O)(=O)n2c(NC(=O)Nc3c(C)cccc3C(C)C)c(-c3ccccc3Cl)c3cc(C)cc(C)c32)cc1 [Compound 121, N-[3-(2-chlorophenyl)-5,7-dimethyl-1-(p-toluenesulfonyl)indole-2-yl]-N'-(2-isopropyl-6-methylphenyl)urea]"
4,75.4,"Cc1ccc(S(=O)(=O)n2c(NC(=O)Nc3ccc(F)cc3F)c(-c3ccccc3Cl)c3cc(C)cc(C)c32)cc1 [Compound 122, N-[3-(2-Chlorophenyl)-5,7-dimethyl-1-(p-toluenesulfonyl)indole-2-yl]-N'-(2,4-difluorophenyl)urea]"
5,81.7,"Cc1cc(C)c2c(c1)c(-c1ccccc1Cl)c(NC(=O)Nc1ccc(F)cc1F)n2C [Compound 124, N-[3-(2-Chlorophenyl)-5,7-dimethyl-1-methylindole-2-yl]-N'-(2,4-difluorophenyl)urea]"

# System: serum cholesterol
# Assay: Serum cholesterol lowering activity in hamsters fed on a high-cholesterol diet
# Format: in vivo, Male Syrian hamsters
# Settings: 30 mg per kg of body weight per day for 4 days, 24 hours after the last administration
# Description: Serum cholesterol lowering activity in hamsters fed on a high-cholesterol diet
# Male Syrian hamsters of 10-week-old were divided into three groups. The first group (normal group) was fed an ordinary diet for 4 days. The second group (control group) was fed a high cholesterol diet (containing 0.5% cholesterol and 8.0% coconut oil for 4 days. The third group (treated group) was fed a high cholesterol diet and was treated with a compound for 4 days. Simultaneously with the beginning of the above feeding, the compound suspended in a 0.5% carboxymethyl cellulose solution was administered to the treated group, in a dose of 30 mg (in terms of the compound) per kg of body weight per day for 4 days. A 0.5% carboxymethyl cellulose solution was also administered to the normal group and the control group in the same manner as above. After 24 hours of the last administration, blood was collected and the cholesterol concentration in serum was measured by an enzymatic method. The reduction rate of the total serum cholesterol concentration was calculated from values obtained for the three groups by the following equation. [formula] wherein A: the serum cholesterol concentration of the control group.
# B: the serum cholesterol concentration of the compound treated group.
# C: the serum cholesterol concentration of the normal group.
row,SMILES,Reduction rate (%) of the total serum cholesterol concentration [%]
1,"CCc1cccc(CC)c1NC(=O)Nc1oc2cc(C)c(C)cc2c1-c1ccccc1Cl [Compound 37, N-[3-(2-Chlorophenyl)-5,6-dimethylbenzofuran-2-yl]-N'-(2,6-diethylphenyl)urea]",59.3
2,"CCc1cccc(CC)c1NC(=O)Nc1sc2cc3c(cc2c1-c1ccccc1C)CCC3 [Compound 109, N-(2,6-Diethylphenyl)-N'-[3-(2-methylphenyl)-6,7-dihydro-5H-cyclopenta[f][1]benzothiophen-2-yl]urea]",71.5
